These results are taken from ChEMBL document CHEMBL1208683, “Insights into binding modes of adenosine A(2B) antagonists with ligand-based and receptor-based methods” (Eur J Med Chem, 2010).

Assay [1] deals with T1, Adenosine receptor A2a (Homo sapiens, UniProt P29274).
Description: (§1) Antagonist activity against human adenosine A2A receptor
For assay [2], the target named is T2, Adenosine receptor A1 (Homo sapiens, UniProt P30542).
T2 sequence (P30542 whole entry): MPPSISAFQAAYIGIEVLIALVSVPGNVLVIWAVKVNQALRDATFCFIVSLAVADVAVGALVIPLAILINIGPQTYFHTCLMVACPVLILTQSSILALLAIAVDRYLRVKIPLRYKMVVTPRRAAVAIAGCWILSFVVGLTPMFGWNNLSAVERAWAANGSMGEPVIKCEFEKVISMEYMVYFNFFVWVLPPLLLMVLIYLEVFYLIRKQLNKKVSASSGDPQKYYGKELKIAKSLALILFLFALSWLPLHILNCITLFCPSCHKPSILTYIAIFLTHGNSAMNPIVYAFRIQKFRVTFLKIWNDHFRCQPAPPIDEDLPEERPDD
Description: Antagonist activity against human adenosine A1 receptor

For the next assay, the target named is T3, Adenosine receptor A2b (Homo sapiens, UniProt P29275).
T3 sequence (P29275 whole entry): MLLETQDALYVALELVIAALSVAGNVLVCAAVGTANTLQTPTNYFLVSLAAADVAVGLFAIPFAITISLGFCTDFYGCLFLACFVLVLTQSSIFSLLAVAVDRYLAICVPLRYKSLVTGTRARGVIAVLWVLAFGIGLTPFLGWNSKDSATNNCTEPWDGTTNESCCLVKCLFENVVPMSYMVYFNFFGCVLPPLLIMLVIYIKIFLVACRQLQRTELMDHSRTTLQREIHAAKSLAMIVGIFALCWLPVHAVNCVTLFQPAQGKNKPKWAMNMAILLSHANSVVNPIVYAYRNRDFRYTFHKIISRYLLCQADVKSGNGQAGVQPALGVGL

A further assay concerns the target T4, Adenosine receptor A3 (Homo sapiens, UniProt P0DMS8).
T4 sequence (P0DMS8 whole entry): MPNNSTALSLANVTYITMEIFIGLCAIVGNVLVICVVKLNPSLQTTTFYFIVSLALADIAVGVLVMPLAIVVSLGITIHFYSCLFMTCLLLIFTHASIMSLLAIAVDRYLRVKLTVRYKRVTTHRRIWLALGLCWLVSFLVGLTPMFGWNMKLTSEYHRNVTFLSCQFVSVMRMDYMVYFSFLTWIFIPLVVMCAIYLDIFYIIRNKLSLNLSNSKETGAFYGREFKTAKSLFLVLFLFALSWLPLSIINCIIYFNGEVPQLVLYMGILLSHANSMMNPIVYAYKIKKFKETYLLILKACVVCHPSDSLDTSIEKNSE

For assay [3], the target named is T5, Adenosine receptor A1 (Rattus norvegicus, UniProt P25099).
T5 sequence (P25099 whole entry): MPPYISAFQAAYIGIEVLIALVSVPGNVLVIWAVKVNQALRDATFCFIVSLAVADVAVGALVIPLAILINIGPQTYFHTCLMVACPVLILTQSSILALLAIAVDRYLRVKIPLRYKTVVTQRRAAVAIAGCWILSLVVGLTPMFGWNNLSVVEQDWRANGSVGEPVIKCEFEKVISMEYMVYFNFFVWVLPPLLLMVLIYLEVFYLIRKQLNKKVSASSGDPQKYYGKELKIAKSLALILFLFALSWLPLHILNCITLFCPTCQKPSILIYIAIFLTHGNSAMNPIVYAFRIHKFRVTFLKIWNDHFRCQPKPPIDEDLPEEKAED
Nature of the assay: Antagonist activity against rat adenosine A1 receptor. The class given is functional.

The target of assay [4] is Adenosine receptor A2a (Rattus norvegicus, UniProt P30543). Nature of the assay: Antagonist activity against rat adenosine A2A receptor. It counts as functional.
Adenosine receptor A2a (Rattus norvegicus, UniProt P30543), sequence (P30543 whole entry): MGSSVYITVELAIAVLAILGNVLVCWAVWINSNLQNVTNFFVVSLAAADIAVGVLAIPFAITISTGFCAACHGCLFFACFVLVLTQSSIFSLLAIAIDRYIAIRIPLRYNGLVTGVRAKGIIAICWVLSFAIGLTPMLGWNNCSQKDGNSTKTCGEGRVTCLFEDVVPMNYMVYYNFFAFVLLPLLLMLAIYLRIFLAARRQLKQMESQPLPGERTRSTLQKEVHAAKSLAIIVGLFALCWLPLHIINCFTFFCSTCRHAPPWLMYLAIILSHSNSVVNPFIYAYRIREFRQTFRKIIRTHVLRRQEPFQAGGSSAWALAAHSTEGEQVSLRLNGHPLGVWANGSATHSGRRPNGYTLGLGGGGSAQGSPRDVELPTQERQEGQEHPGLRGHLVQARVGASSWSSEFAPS
For assay [5], the target named is T1, Adenosine receptor A2a. This is another data set of the same source.
Description: as §1

T1 sequence (P29274 whole entry): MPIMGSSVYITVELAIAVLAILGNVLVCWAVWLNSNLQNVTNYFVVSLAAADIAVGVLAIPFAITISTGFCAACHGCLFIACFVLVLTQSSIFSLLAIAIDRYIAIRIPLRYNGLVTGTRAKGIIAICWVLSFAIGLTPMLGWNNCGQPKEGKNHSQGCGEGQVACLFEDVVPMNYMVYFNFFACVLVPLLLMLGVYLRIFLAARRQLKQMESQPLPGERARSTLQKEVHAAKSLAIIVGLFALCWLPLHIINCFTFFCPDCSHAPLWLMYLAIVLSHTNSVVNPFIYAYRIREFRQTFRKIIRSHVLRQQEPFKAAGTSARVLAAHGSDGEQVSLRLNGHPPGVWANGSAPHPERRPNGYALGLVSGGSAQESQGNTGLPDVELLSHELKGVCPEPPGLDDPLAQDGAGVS
Description for Adenosine receptor A2b: Antagonist activity against human adenosine A2B receptor
Description for Adenosine receptor A3: Antagonist activity against human adenosine A3 receptor

Consider `Nc1nc(-n2cncn2)c2nnn(Cc3ccccc3F)c2n1`, for which the inhibition constant (Ki) on Adenosine receptor A2a [1] turned out to be 400 nM; at Adenosine receptor A1 [2], 2960 nM; on Adenosine receptor A2b, 1290 nM; on Adenosine receptor A3, 2810 nM.
With `COc1ccc2c(C)nc(NC3=NCC(=O)N3)nc2c1`, the inhibition constant Ki at Adenosine receptor A1 [3] worked out at 1290 nM; at Adenosine receptor A2a [4], 2400 nM; on Adenosine receptor A2b, 112 nM.
For `Cn1c(=O)c2[nH]c(-c3ccc(S(=O)(=O)NCC(=O)O)cc3)nc2n(C)c1=O`, on Adenosine receptor A3, the Ki was above 10000 nM.
In turn, `CCCn1c(=O)c2nc(-c3cnn(Cc4cc(C(F)(F)F)ccc4Cl)c3)[nH]c2n(CCC)c1=O` gave an inhibition constant Ki on Adenosine receptor A3 of 54 nM. That is a double-digit nanomolar value.
`Cn1c(=O)c2c(nc(-c3ccccc3)n2O)n(C)c1=O` gave an Activity at Adenosine receptor A2a [5] of 12%. Further, the Ki is 1660 nM on Adenosine receptor A2b and above 9000 nM on Adenosine receptor A3.
`CCCn1c(=O)[nH]c2[nH]c(-c3ccc(S(=O)(=O)NCc4ccccc4)cc3)nc2c1=O` returned an inhibition constant (Ki) on Adenosine receptor A3 above 1000 nM.
As to `CCOc1cccc2c(C)nc(N=C(N)N)nc12`, the values for the Ki at Adenosine receptor A1 [3], on Adenosine receptor A2a [4] and on Adenosine receptor A2b were 1330 nM, 624 nM and 1780 nM, respectively.

The Ki is a measure of affinity in units of concentration, obtained from inhibition or displacement. A higher Ki goes with weaker binding.
